Each structure is given as a SMILES string.

Holding throughout (type): cell-based
The subject of assay [1] is NCI-59 human cancer cell lines. Briefly: NCI-60 one-dose SRB screening, full panel and subpanels. The following applies: for activity at 10 µM / inhibition at 10 µM: Homo sapiens; for activity at 10 µM: mean over the full panel, 10 µM one dose, 48 h, SRB, read-out: growth percentage, Mean; for inhibition at 10 µM: read-out: mean growth inhibition % (MGI%, GI%). The procedure:
The structures of the synthesized compounds 6a–h, 12a–c, 11, 13a–c, and 14a–c were submitted to the National Cancer Institute’s Developmental Therapeutics Program (NCI-DTP), and all of them were selected for preliminary in vitro anticancer activity screening against NCI-59 human cancer cell lines at a concentration of 10 µM, using the sulforhodamine B (SRB) assay to determine the growth percentage and cell viability.
The in vitro NCI-60 cell line screening assay was conducted at the National Cancer Institute (NCI), Bethesda, USA against 59 cancer cell lines representing 9 types of cancers, as reported earlier. Briefly, the human cancer cell lines were grown in RPMI 1640 medium containing 5% fetal bovine serum and 2 mM L-glutamine and inoculated into 96-well microtiter plates in 100 μL (5000 to 40,000 cells/well). Then, the plates were incubated at 37 °C, 5% CO2, 95% air, and 100% relative humidity for 24 h. After that, two plates of each cell line were fixed in situ with TCA, to represent cell population at time zero (Tz). The tested compounds were dissolved in DMSO at 400-fold and added so that the final concentration became 10 μM. The plates were then incubated for an additional 48 h followed by the addition of cold TCA to terminate the assay in case of adherent cells. Then, the cells were fixed in situ by cold 50% (w/v) TCA (50 μL; final concentration, 10% TCA) and incubated for 1 h at 4 °C. After discarding the supernatant, the plates were washed 5 times with tap water and air dried. Sulforhodamine B (SRB) solution (100 μL) at 0.4% (w/v) in 1% HOAc was added to each well, and plates were incubated for 10 min. at rt. Then, washing with 1% acetic acid was conducted 5 times to remove the unbound dye followed by air drying. After that, 10 mM trizma base was added to solubilize the bound stain, and the absorbance was read on an automated plate reader at a wavelength of 515 nm. On the other hand, the methodology for suspension cells was the same except that 50 μL of 80% TCA (final concentration, 16% TCA) was gently added to terminate the assay by fixing settled cells at the bottom of the wells. Percentage growth inhibition (GI%) was calculated as follows:
Growth percentage=Ti (test growth in the presence of compound at 10 µM )−Tz (time zero)/C (control growth)−Tz (time zero)×100 for Ti ≥ Tz;
Growth percentage=Ti (test growth in the presence of compound at 10 µM )−Tz (time zero)/Tz (time zero)×100 for Ti < Tz.
where values of 100, 40, 0, −40, and −100 mean no GI, 60% GI, no net G, 40% lethality, and all cells are dead, respectively.
Data are expressed as a one-dose mean graph of growth percentages including the mean, delta, and range.

Assay [2] deals with HCT-116. Briefly: NCI-60 one-dose SRB screening. The following applies: Homo sapiens, HCT-116, Colon Cancer, 10 µM one dose, 48 h, read-out: growth percentage.
Assay [3] relates to RPMI-8226. Briefly: NCI-60 one-dose SRB screening. The following applies: Homo sapiens, RPMI-8226, Leukemia, 10 µM one dose, 48 h, read-out: growth percentage.
The test system of assay [4] is DU-145. Description: NCI-60 one-dose SRB screening. The following applies: Homo sapiens, DU-145, Prostate Cancer, 10 µM one dose, 48 h, read-out: growth percentage.
Assay [5] relates to SW-620. Briefly: NCI-60 one-dose SRB screening. The following applies: Homo sapiens, SW-620, Colon Cancer, 10 µM one dose, 48 h, read-out: growth percentage.
Assay [6] has as its system SF-295. Briefly: NCI-60 one-dose SRB screening. The note with it: Homo sapiens, SF-295, CNS Cancer, 10 µM one dose, 48 h, read-out: growth percentage.
Assay [7] has as its system HCC-2998. Description: NCI-60 one-dose SRB screening. The following applies: Homo sapiens, HCC-2998, Colon Cancer, 10 µM one dose, 48 h, read-out: growth percentage.
In assay [8] the test system is MDA-MB-231/ATCC. Description: NCI-60 one-dose SRB screening. The following applies: Homo sapiens, Breast Cancer, 10 µM one dose, 48 h, read-out: growth percentage.
Assay [9] has as its system A549/ATCC. Briefly: NCI-60 one-dose SRB screening. The following applies: Homo sapiens, Non-Small Cell Lung Cancer, 10 µM one dose, 48 h, read-out: growth percentage.
In assay [10] the test system is CCRF-CEM. Description: NCI-60 one-dose SRB screening. The note with it: Homo sapiens, Leukemia, 10 µM one dose, 48 h, read-out: growth percentage.
Assay [11] concerns HS 578T. Description: NCI-60 one-dose SRB screening. The note with it: Homo sapiens, Breast Cancer, 10 µM one dose, 48 h, read-out: growth percentage.
Assay [12] has as its system MALME-3M. Briefly: NCI-60 one-dose SRB screening. The note with it: Homo sapiens, Melanoma, 10 µM one dose, 48 h, read-out: growth percentage.
The subject of assay [13] is HOP-62. Briefly: NCI-60 one-dose SRB screening. The following applies: Homo sapiens, HOP-62, Non-Small Cell Lung Cancer, 10 µM one dose, 48 h, read-out: growth percentage.
For assay [14], the system named is MDA-MB-435. Description: NCI-60 one-dose SRB screening. The note with it: Homo sapiens, MDA-MB-435, Melanoma, 10 µM one dose, 48 h, read-out: growth percentage.
In assay [15] the test system is NCI-H322M. Briefly: NCI-60 one-dose SRB screening. The note with it: Homo sapiens, Non-Small Cell Lung Cancer, 10 µM one dose, 48 h, read-out: growth percentage.
For assay [16], the system named is SK-OV-3. Description: NCI-60 one-dose SRB screening. The note with it: Homo sapiens, SK-OV-3, Ovarian Cancer, 10 µM one dose, 48 h, read-out: growth percentage.

`Cc1nc(Nc2ccc(OCc3c(-c4ccccc4)no[n+]3[O-])cc2)c2cnn(-c3ccc(Br)cc3)c2n1` [6f, 3-((4-((1-(4-bromophenyl)-6-methyl-1H-pyrazolo[3,4-d]pyrimidin-4-yl)amino)phenoxy)methyl)-4-phenyl-1,2,5-oxadiazole 2-oxide]: the activity at 10 µM in assay [1] was 99.7%; in assay [2], 97.5%; in assay [3], 115%; in assay [4], 104%; in assay [5], 109%; in assay [6], 102%. Further, the activity at 10 µM was 104% in assay [7]; 106% in assay [8]; 94.9% in assay [9]; 104% in [10]; 93.6% in assay [11]; 106% in [12]. Moreover, the activity at 10 µM in [13] was found to be 110%; in assay [14], 94.5%; in assay [15], 90.8%; in assay [16], 113%. For the same molecule, the “mean growth inhibition % (MGI%, GI%)” value in [1] (full NCI-59 panel, 10 µM) is recorded as “no mean growth inhibition percentage”.

Consider `Cc1nn(-c2ccc(Br)cc2)c2ncnc(Nc3ccc(OCc4c(-c5ccccc5)no[n+]4[O-])cc3)c12` [6g, 3-((4-((1-(4-bromophenyl)-3-methyl-1H-pyrazolo[3,4-d]pyrimidin-4-yl)amino)phenoxy)methyl)-4-phenyl-1,2,5-oxadiazole 2-oxide], for which the inhibition at 10 µM in [1] (full NCI-59 panel, 10 µM) lay within 1.58 to 4.57%. Also, the activity at 10 µM in [1] was 98.4%; in assay [2], 90.7%; in assay [3], 108%; in assay [4], 110%; in [5], 107%; in assay [6], 87.6%. The activity at 10 µM in assay [7] turned out to be 104%; in assay [8], 84.9%; in assay [9], 97.3%; in [10], 98.1%; in assay [11] it was 93.4%; in [12] it was 91.6%. Further, the activity at 10 µM in [13] is 94%; in [14], 101%; in assay [15], 94.5%; in assay [16], 96.2%.

Regarding `Cc1nc(Nc2ccc(OCc3c(-c4ccccc4)no[n+]3[O-])cc2)c2c(C)nn(-c3ccc(Br)cc3)c2n1` [6h, 3-((4-((1-(4-bromophenyl)-3,6-dimethyl-1H-pyrazolo[3,4-d]pyrimidin-4-yl)amino)phenoxy)methyl)-4-phenyl-1,2,5-oxadiazole 2-oxide], the inhibition at 10 µM in [1] (full NCI-59 panel, 10 µM) lay in the range of 1.58 to 4.57%. In addition, the activity at 10 µM in assay [1] is 95.4%; in [2] it was 71.5%; in assay [3], 90.6%; in [4], 102%; in assay [5], 101%; in [6], 105%. Moreover, the activity at 10 µM in assay [7] was 106%; in [8], 100%; in assay [9] it was 96.4%; in assay [10] it was 103%; in [11] it was 94.8%; in [12], 96%. For the same molecule, the activity at 10 µM was 104% in assay [13], 96.7% in assay [14], 94.4% in [15] and 109% in assay [16].

For `Cc1nn(-c2ccccc2)c2nc(C(F)(F)F)nc(Nc3ccc(NCc4c(-c5ccccc5)no[n+]4[O-])cc3)c12` [12a, 3-(((4-((3-methyl-1-phenyl-6-(trifluoromethyl)-1H-pyrazolo[3,4-d]pyrimidin-4-yl)amino)phenyl)amino)methyl)-4-phenyl-1,2,5-oxadiazole 2-oxide], the activity at 10 µM in assay [1] amounted to 76.8%; in assay [2], 41.1%; in [3] it was 83.4%; in assay [4], 82.2%; in assay [5], 86%; in assay [6] it was 76.6%. For the same molecule, the activity at 10 µM in assay [7] came to 85.6%; in [8], 84.4%; in [9], 76.6%; in assay [10] it was 59.2%; in assay [11] it was 77.9%; in assay [12], 91%. Moreover, the activity at 10 µM came out at 93.1% in assay [13], 78.7% in [14], 77.6% in assay [15] and 96.9% in [16].

Take `Cc1nn(-c2ccc(Br)cc2)c2nc(C(F)(F)F)nc(Nc3ccc(NCc4c(-c5ccccc5)no[n+]4[O-])cc3)c12` [12c, 3-(((4-((1-(4-bromophenyl)-3-methyl-6-(trifluoromethyl)-1H-pyrazolo[3,4-d]pyrimidin-4-yl)amino)phenyl)amino)methyl)-4-phenyl-1,2,5-oxadiazole 2-oxide]: the activity at 10 µM in assay [1] was 74.8%; in assay [2] it was 31.9%; in [3], 91.1%; in assay [4] it was 84.8%; in [5] it was 79.7%; in assay [6], 57.5%. Further, the activity at 10 µM came to 96.1% in [7]; 65.9% in assay [8]; 82.4% in [9]; 60.4% in assay [10]; 83.2% in [11]; 77.7% in assay [12]. Moreover, the activity at 10 µM worked out at 68.3% in assay [13], 86.6% in [14], 85.1% in assay [15] and 82.7% in assay [16].

On to `O=c1[nH]c(CCl)nc2c1cnn2-c1ccccc1` [13a], for which the activity at 10 µM turned out to be 94.2% in assay [1]; 94.9% in assay [2]; 82.5% in [3]; 98.6% in [4]; 102% in assay [5]; 110% in assay [6]. The activity at 10 µM in assay [7] is 105%; in assay [8], 101%; in assay [9], 98.5%; in [10], 101%; in assay [11] it was 111%; in assay [12], -38.5%. Besides, the activity at 10 µM came out at 125% in assay [13], 95.7% in assay [14], 101% in assay [15] and 106% in [16].

The inhibition is how much of the control response was suppressed.
